Data as given in patent publication US12616704B2, “Cannabichromene formulation for pain management” (Zyus Life Sciences Inc., priority 2020, dated 2026).

Tests used:
[1] = Body weight in OIPN study; assay type: in vivo, C57BL/6J mice; conditions: OIPN mice; CBC 20 mg/kg p.o., Duloxetine 25 mg/kg i.p.
Description: Body Weight—Animal body weights were measured before assigning the treatment groups and then on each day of the study. The last body weight measurement was performed upon endpoint sampling. Terminal body weights were not collected from animals found dead or euthanized moribund.

[2] = molecular target: TRPA1 (Transient Receptor potential A1) channels (Homo sapiens, UniProt O75762); conditions: among phytocannabinoids; cited from earlier work
[3] = test system: Oxaliplatin-induced cool allodynia; test: Acetone Cooling Test (ACT) in oxaliplatin-induced polyneuropathy (OIPN) model; assay type: in vivo, C57BL/6J mice; conditions: CBC 20 mg/kg p.o.
Description: Model Induction—Mouse Oxaliplatin-induced polyneuropathy (OIPN) model was induced over a three-week period. The day of first Oxaliplatin (OXP) injection is referred to as day 0 (DO). OXP was administered as six separate intraperitoneal injections at 4.5-mg/kg (10 ml/kg, i.p.) to Groups 2, 3, and 4 on DO, D4, D8, D12, D16, and D20. The cumulative OXP dose was thus 27 mg/kg. The in-life procedures, such as observations, tests, and/or measurements were performed by Charles River Discovery Services with blinded methods. The mice were distributed into 4 groups (n=8 for Vehicle Control; n=10 OXP Control; n=20 CBC; n=15 Duloxetine).
Treatments—Following exposure to OXP for 20 days, Groups 3 and 4 were treated with CBC (20 mg/kg, p.o.) and Duloxetine (25 mg/kg, i.p.), respectively, for 10 consecutive days. In a similar regimen Groups 1 and 2 (Vehicle Control and OXP-Vehicle Control, respectively) received a corresponding volume of 5% glucose solution at an administration volume of 10 mL/kg.
Acetone Cooling Test (ACT) —To produce a measurable cooling sensation, 10-15 μL of acetone was applied onto the medial area of the plantar hind paw with a 0.5 ml insulin syringe. Responses of a mouse to acetone were monitored for 20 s, and a score given based on a four-point scale (0-3 points), according to the response intensity, continuation, and briskness. The higher the score, the greater the cool allodynia sensed by the mouse.
Within one test timepoint, a total of 3 trials were performed per paw with a minimum gap of 5 min between testing. The three individual scores were added up to obtain a single score over a cumulative period of 60 s. Thus, for one test, the minimum score of one paw is 0 (no cool allodynia), while the maximum possible score is 9 (intensive cool allodynia). The total scores for the left and right paws were averaged to accomplish a single result value per mouse at each timepoint.
The Acetone Cooling Test was performed prior to OXP administration (Baseline), following the last OXP injection (D21), one day after the first CBC, Duloxetine, or Vehicle treatment (D22), and after a 10-day daily dosing of CBC, Duloxetine, or Vehicle treatment (D31). Taken together, the ACT was used to assess chemotherapy-induce cool allodynia as stated in the schedule:
On D22: At 60 min after the first Vehicle/CBC dose and 120 min after Dulx dose.
On D31: At 60 min after the last Vehicle/CBC and 120 min after Dulx dose.

CB2 receptors = CB2 receptors (Homo sapiens, UniProt P34972); conditions: read-out: affinity (Ki) for CB2 receptors; cited from earlier work
CB1 receptors = CB1 receptors (Homo sapiens, UniProt P21554); conditions: cited from earlier work
CB1 receptors, sequence (P21554 whole entry): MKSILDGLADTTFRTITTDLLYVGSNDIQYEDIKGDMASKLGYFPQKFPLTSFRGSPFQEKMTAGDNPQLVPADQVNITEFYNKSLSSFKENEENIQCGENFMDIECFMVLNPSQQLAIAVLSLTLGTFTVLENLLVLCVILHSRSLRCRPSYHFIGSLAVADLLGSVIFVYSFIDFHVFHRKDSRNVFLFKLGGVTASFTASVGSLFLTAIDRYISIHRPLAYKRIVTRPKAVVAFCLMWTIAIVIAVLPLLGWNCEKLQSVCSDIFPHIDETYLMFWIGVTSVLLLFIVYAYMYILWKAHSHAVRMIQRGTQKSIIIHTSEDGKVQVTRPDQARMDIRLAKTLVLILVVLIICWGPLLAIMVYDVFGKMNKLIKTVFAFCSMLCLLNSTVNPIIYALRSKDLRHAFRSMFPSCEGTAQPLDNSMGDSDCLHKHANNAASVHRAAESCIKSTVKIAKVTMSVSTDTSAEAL

CB2 receptors, sequence (P34972 whole entry): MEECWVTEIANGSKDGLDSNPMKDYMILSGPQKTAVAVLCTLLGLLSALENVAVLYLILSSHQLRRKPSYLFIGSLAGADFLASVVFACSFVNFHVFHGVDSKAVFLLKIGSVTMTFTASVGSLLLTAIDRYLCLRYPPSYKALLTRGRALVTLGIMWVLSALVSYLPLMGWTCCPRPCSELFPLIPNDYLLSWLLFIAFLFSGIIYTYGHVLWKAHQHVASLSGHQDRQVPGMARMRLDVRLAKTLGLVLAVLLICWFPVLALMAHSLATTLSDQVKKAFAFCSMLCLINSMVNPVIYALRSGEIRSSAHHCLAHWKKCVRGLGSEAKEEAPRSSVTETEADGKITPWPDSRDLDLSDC
TRPA1 (Transient Receptor potential A1) channels, sequence (O75762 whole entry): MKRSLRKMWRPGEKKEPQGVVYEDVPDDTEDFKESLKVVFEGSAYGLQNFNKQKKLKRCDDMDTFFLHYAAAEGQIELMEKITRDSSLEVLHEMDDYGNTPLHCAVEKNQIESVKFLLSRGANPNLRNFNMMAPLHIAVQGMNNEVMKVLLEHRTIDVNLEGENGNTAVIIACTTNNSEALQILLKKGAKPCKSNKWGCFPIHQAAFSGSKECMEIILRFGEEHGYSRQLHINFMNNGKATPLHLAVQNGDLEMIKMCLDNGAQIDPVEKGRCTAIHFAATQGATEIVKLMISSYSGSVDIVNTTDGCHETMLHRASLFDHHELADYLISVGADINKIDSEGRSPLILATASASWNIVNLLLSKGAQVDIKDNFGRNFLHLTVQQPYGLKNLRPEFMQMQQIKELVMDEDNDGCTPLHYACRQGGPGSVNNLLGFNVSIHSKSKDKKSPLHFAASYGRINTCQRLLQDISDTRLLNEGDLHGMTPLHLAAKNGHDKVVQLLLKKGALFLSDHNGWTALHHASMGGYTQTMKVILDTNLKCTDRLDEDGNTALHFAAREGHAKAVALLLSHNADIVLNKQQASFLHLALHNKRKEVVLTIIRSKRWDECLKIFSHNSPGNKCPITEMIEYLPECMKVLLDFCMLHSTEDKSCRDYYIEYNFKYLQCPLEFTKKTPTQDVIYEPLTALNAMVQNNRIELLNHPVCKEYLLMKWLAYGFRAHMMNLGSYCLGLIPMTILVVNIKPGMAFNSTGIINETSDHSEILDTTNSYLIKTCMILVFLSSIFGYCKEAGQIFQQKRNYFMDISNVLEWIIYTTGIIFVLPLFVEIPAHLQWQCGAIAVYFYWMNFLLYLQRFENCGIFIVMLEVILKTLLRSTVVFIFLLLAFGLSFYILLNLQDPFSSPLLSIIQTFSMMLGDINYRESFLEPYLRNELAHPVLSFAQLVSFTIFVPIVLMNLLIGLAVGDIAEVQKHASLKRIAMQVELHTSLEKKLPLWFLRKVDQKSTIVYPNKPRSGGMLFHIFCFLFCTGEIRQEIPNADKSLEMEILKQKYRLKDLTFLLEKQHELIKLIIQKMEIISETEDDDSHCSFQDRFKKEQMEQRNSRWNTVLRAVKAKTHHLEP

CCCCCc1cc(O)c2c(c1)OC(C)(CCC=C(C)C)C=C2 (stereo not drawn) [CBC, cannabichromene]
body weight development from D22 onwards [1]: slower increase in body weight
agonist potency at TRPA1 channels [2]: most potent agonist of all the phytocannabinoids
ACT score compared with OXP-Vehicle control ([3]; D22, acute single dose, Duloxetine 25 mg/kg i.p.): statistically significant and comparable reduction in cool allodynia
ACT score compared with OXP-Vehicle control ([3]; D31, chronic repeated dosing, Duloxetine 25 mg/kg i.p.): qualitative but not statistically significant reduction
ACT score compared with OXP-Vehicle control: p ([3]; D31, chronic repeated dosing, Mann-Whitney test): 0.06
ACT score, D31 vs. D21 ([3]; within group, 10-day repeated dosing, Duloxetine 25 mg/kg i.p.): significant reversion of cool allodynia
ACT score, reversion of cool allodynia D22 vs. D21 pre-treatment: p ([3]; within group, single dose, Duloxetine 25 mg/kg i.p.): < 0.001
Ki (CB2 receptors): ~100 nM
binds to CB1 receptors only at concentrations higher than (CB1 receptors): higher than 1 micromolar
